The values below come from patent publication US10632206B2, “Zwitterionic polymers with therapeutic moieties” (priority 2008, dated 2020).

SMILES strings stand for the structures.

Common to all, as to assay: In vitro cytotoxicity, CellTiter-Glo cell viability
What all share (format): cell-based

The test system of assay [1] is colon (COLO 205) adenocarcinoma cells. To be noted: Homo sapiens, 72 h incubation, CPT-equivalent concentrations. The text has this: (§1) HPLC characterization of CPT liberation from CPT-polyMPC conjugates confirmed the importance of tailored linkers, and was informative for in vitro cell culture evaluation of conjugate toxicity against various cell lines. […] These CPT hydrolysis half-lives are, however, slower than those reported for PEGylated-SN38 conjugates, leading to an expected longer blood circulation time in vivo. […] Controls included a DMSO solution of CPT, and polyMPC itself in sterile distilled water. […] Importantly, the cytotoxicity was through the CPT only, since polyMPC by itself was non-toxic (FIG. 8).
(§2) Sodium azide, 4-(dimethylamino)pyridine (DMAP), N,N′-diisopropylethylamine (DIPEA), triethylamine (TEA), N-(3-Dimethylaminopropyl)-N′-ethylcarbodiimide hydrochloride (EDC), 2-bromopropionyl bromide, 2-bromoisobutyryl bromide, copper(I) bromide, 2,2′-bipyridine (bpy), 6-bromohexanoic acid, 2-[2-(2-chloroethoxy)ethoxy]ethanol, ethyl 2-bromoisobutyrate, 3-(trimethylsilyl)propargyl alcohol, methacyloyl chloride, mouse serum, and human plasma were purchased from Aldrich. 20(S)-camptothecin (CPT) was purchased from Acros. Chromium trioxide was purchased from Alfa Aesar. TFA was purchased from Fisher Scientific. Boc-Gly-OH was purchased from Advanced ChemTech. MPC monomer was synthesized in house. […] Cell viability was measured using CellTiter-Glo luminescent cell viability assays (Promega).
(§3) The COLO 205 and OVCAR 3 cancer cells were cultured in RPMI-1640 medium supplemented with 10% fetal bovine serum (FBS) or 20% FBS and 0.01 mg/ml bovine insulin, while MCF 7 cells were cultured in MEM medium supplemented with 10% FBS and 0.01 mg/ml bovine insulin. […] Cell viability post-treatment was measured using CellTiter-Glo luminescent cell viability assays (Promega) as per manufacturer's instructions on a FLUOstar OPTIMA plate reader (BMG LABTECH). The percentage camptothecin mediated toxicity was calculated with respect to untreated cells, and graphed to give dose response curves. IC50 values for each treatment were then calculated using the GraphPad Prism4 statistical analysis software.

Assay [2] relates to ovarian (OVCAR 3) adenocarcinoma cells. Conditions: Homo sapiens, 72 h incubation, CPT-equivalent concentrations.
Excerpt: as §1, §2, §3

For assay [3], the system named is human breast (MCF-7) adenocarcinoma cells. Conditions: MCF7, 72 h incubation, CPT-equivalent concentrations.
Excerpt: as §1, §2, §3

`CC[C@@]1(O)C(=O)OCc2c1cc1n(c2=O)Cc2cc3ccccc3nc2-1` [CPT, 20(S)-Camptothecin]: the concentration for half-maximal inhibition (IC50) in assay [1] came out at 320 nM; in assay [2] it was 130 nM; in assay [3], 290 nM.
